Broadly, the chromatographic logP is a lipophilicity value derived from retention on a column. In general, inhibition refers to the relative decrease from the control value, in per cent.

The nature of data set [1]: Log P by HPLC on reversed phase columns (EEC directive 79/831 Annex V.A8). The format is physicochemical. The settings on record: reversed phase HPLC columns, method [a]: LC-UV, acidic range, 0.1% formic acid in water and acetonitrile as eluent. How it is done: In the above table, measurement of Log P values was performed according to EEC directive 79/831 Annex V.A8 by HPLC (High Performance Liquid Chromatography) on reversed phase columns with the following methods: • [^a] Log P value is determined by measurement of LC-UV, in an acidic range, with 0.1% formic acid in water and acetonitrile as eluent (linear gradient from 10% acetonitrile to 95% acetonitrile). • [^b] Log P value is determined by measurement of LC-UV, in a neutral range, with 0.001 molar ammonium acetate solution in water and acetonitrile as eluent (linear gradient from 10% acetonitrile to 95% acetonitrile). • [^c] Log P value is determined by measurement of LC-UV, in an acidic range, with 0.1% phosphoric acid and acetonitrile as eluent (linear gradient from 10% acetonitrile to 95% acetonitrile).
If more than one Log P value is available within the same method, all the values are given and separated by “+”.
Calibration was done with straight-chain alkan2-ones (with 3 to 16 carbon atoms) with known Log P values (measurement of Log P values using retention times with linear interpolation between successive alkanones). Lambda-max-values were determined using UV-spectra from 200 nm to 400 nm and the peak values of the chromatographic signals.

The subject of data set [2] is salicylate responsive promoter sequence of the PR1 (pathogenesis-related protein I) gene (AT2G14610). Nature of the data set: Induction of defense gene expression in Arabidopsis thaliana (PR1 promoter-GFP reporter plants). The format is in vivo. The settings on record: 72 h, 3rd day after spraying, mock treated leaves set as 1.00, read-out: relative fluorescence value. How it is done:
Arabidopsis thaliana reporter plants containing the coding sequence of a green fluorescent protein (GFP) linked to the salicylate responsive promoter sequence of the PR1 (pathogenesis-related protein I) gene (AT2G14610) were grown for five days and then sprayed with compounds. On the 3rd day after spraying, plant fluorescence was assessed with a MacroFluo instrument from Leica Microsystems (Wetzlar, Germany). Fluorescences were quantified with the Meta-Morph Microscopy Automation & Image Analysis Software (Molecular Devices, Sunnyvale, Calif., United States).
Background fluorescence in mock treated leaves was set as 1.00.

Data set [3] deals with Colletotrichum lindemuthianum. Nature of the data set: Colletotrichum lindemuthianum in vitro cell test. The format is cell-based. The following applies: 144 h, 20 ppm of active ingredient, 6 days incubation, read-out: efficacy (direct activity, inhibition of fungal growth). How it is done:
Solvent: DMSO Culture medium: 14.6 g anhydrous D-glucose (VWR), 7.1 g Mycological Peptone (Oxoid), 1.4 g granulated Yeast Extract (Merck), QSP 1 liter Inoculum: spores suspension Fungicides were solubilized in DMSO and the solution used to prepare the required range of concentrations. The final concentration of DMSO used in the assay was ≤1%. A spore suspension of C. lindemuthianum was prepared and diluted to the desired spore density. Fungicides were evaluated for their ability to inhibit spores germination and mycelium growth in liquid culture assay. The compounds were added in the desired concentration to the culture medium with spores. After 6 days incubation, fungi-toxicity of compounds was determined by spectrometric measurement of mycelium growth. Inhibition of fungal growth was determined by comparing the absorbance values in wells containing the fungicides with the absorbance in control wells without fungicides.

The test system of data set [4] is Xanthomonas campestris pv. campestris. Briefly: Xanthomonas campestris pv. campestris in vitro cell test. The format is cell-based. The settings on record: 20 ppm of active ingredient, 24 h incubation, read-out: efficacy (direct activity, inhibition of bacteria growth). The method, then: Solvent: DMSO Culture medium: LB broth medium (Luria Broth Miller) Sigma Inoculum: bacteria suspension Compounds were solubilized in DMSO and the solution used to prepare the required range of concentrations. The final concentration of DMSO used in the assay was ≤1%. Inoculum was prepared from a pre-culture of bacteria grown in liquid medium and diluted to the desired optical density (OD). Compounds were evaluated for their ability to inhibit bacteria growth in liquid culture assay. The compounds were added in the desired concentrations to culture medium containing the bacteria suspension. After 24 h of incubation, the efficacy of compounds was determined by spectrometric measurement of bacteria growth. Inhibition was determined by comparing the absorbance values in wells containing the compounds with the absorbance in control wells without active ingredients.

Data set [5] concerns Colletotrichum lindemuthianum. Briefly: In vivo preventive test on Colletotrichum lindemuthianum (Antrachnose on bean). The settings on record: Colletotrichum lindemuthianum, 144 h, bean, evaluated 6 days after inoculation, read-out: efficacy; for pest or weed control at 500 ppm: 500 ppm of active ingredient. How it is done:
The tested active ingredients were prepared by homogenization in a mixture of acetone/Dimethyl sulfoxide/Tween®, and then diluted with water to obtain the desired active material concentration. The young plants of bean were treated by spraying the active ingredient prepared as described above. Control plants were treated only with an aqueous solution of acetone/Dimethyl sulfoxide/Tween®.
After 72 hours, the plants were contaminated by spraying the leaves with an aqueous suspension of Colletotrichum lindemuthianum spores. The contaminated bean plants were incubated for 24 hours at 20° C. and at 100% relative humidity and then for 5 days at 20° C. and at 90% relative humidity.
The test was evaluated 6 days after the inoculation. 0% means an efficacy which corresponds to that of the control plants while an efficacy of 100% means that no disease was observed.
Compound CMP1 was tested in an in vivo preventive test on Colletotrichum lindemuthianum (Antrachnose on bean) in the same conditions as described in Example D.

Another data set deals with Peronospora parasitica. Nature of the data set: In vivo preventive test on Peronospora parasitica (crucifer downy mildew). The settings on record: Hyaloperonospora parasitica, 120 h; 125 ppm of active ingredient; cabbage; evaluated 5 days after inoculation; read-out: efficacy. How it is done:
(§1) The tested active ingredients were prepared by homogenization in a mixture of acetone/Dimethyl sulfoxide/Tween®, and then diluted with water to obtain the desired active material concentration.
(§2) The young plants of cabbage were treated by spraying the active ingredient prepared as described above. Control plants were treated only with an aqueous solution of acetone/Dimethyl sulfoxide/Tween®.
After 72 hours, the plants were contaminated by spraying the leaves with an aqueous suspension of Peronospora parasitica spores. The contaminated cabbage plants were incubated for 5 days at 20° C. and at 100% relative humidity.
The test was evaluated 5 days after the inoculation. 0% means an efficacy which corresponds to that of the control plants while an efficacy of 100% means that no disease was observed.

Data set [6] has as its system Xanthomonas campestris pv. campestris. Nature of the data set: In vivo preventive test on Xanthomonas campestris pv. campestris (black rot on cabbage). The settings on record: Xanthomonas campestris, cabbage, evaluated 8 or 10 days after inoculation, read-out: efficacy; for pest or weed control at 31 ppm: 31 ppm of active ingredient. The method, then:
as §1, §2
After 72 hours, the plants were contaminated by spraying the leaves with an aqueous bacteria suspension of Xanthomonas campestris pv. campestris. The contaminated cabbage plants were incubated for 8 or 10 days at 27° C. at 95% relative humidity.
The test was evaluated 8 or 10 days after the inoculation. 0% means an efficacy which corresponds to that of the control plants while an efficacy of 100% means that no disease was observed.
Compound CMP1 was tested in an in vivo preventive test on Xanthomonas campestris pv. campestris (black rot on cabbage) in the same conditions as described in Example F.

The test system of the next data set is Uromyces appendiculatus. Nature of the data set: In vivo preventive test on Uromyces appendiculatus (bean rust). The settings on record: Uromyces appendiculatus, 240 h, bean, evaluated 10 days after inoculation, read-out: efficacy; for pest or weed control at 125 ppm: 125 ppm of active ingredient; for pest or weed control at 500 ppm: 500 ppm of active ingredient. The method, then:
as §1
The young plants of bean were treated by spraying the active ingredient prepared as described above.
Control plants were treated only with an aqueous solution of acetone/Dimethyl sulfoxide/Tween®.
After 72 hours, the plants were contaminated by spraying the leaves with an aqueous suspension of Uromyces appendiculatus spores. The contaminated bean plants were incubated for 24 hours at 20° C. and at 100% relative humidity and then for 9 days at 20° C. and at 70-80% relative humidity.
The test was evaluated 10 days after the inoculation. 0% means an efficacy which corresponds to that of the control plants while an efficacy of 100% means that no disease was observed.
Compound CMP1 was tested in an in vivo preventive test on Uromyces appendiculatus (bean rust) in the same conditions as described in Example G.

For the compound `O=C1OC(c2sc(Cl)c(Br)c2Cl)=NC12CC2` [I.09], the chromatographic logP in data set [1] was determined as 4.01. Moreover, in data set [2] (75 ppm of compound), the fold induction at 75 ppm is > 2. In addition, the fold induction at 300 ppm in data set [2] is > 2. Moreover, the inhibition at 20 ppm in data set [3] and in data set [4] was ≤ 30% throughout. The pest or weed control at 31 ppm in data set [5] (31 ppm of active ingredient) was 70 to 79%; in data set [6] it was 70 to 79%; in the data set on Uromyces appendiculatus (31 ppm of active ingredient), 90 to 100%. Further, the pest or weed control at 500 ppm (in data set [5]; in the data set on Uromyces appendiculatus) was 90 to 100% throughout. Also, the pest or weed control at 125 ppm in the data set with Peronospora parasitica and with Uromyces appendiculatus was 90 to 100% throughout.

The compound `Cc1c(C2=NC3(CC3)C(=O)O2)sc(Br)c1Cl` [I.12] returned a chromatographic logP in data set [1] of 4.32. In data set [2], the fold induction at 300 ppm is > 2. The inhibition at 20 ppm in data set [3] and in data set [4] was ≤ 30% throughout. For the same compound, the values for the pest or weed control at 500 ppm (in data set [5]; in the data set with Uromyces appendiculatus) were 80 to 89% and 90 to 100%, respectively. The pest or weed control at 125 ppm (in the data set with Peronospora parasitica; in data set [6] (125 ppm of active ingredient); in the data set on Uromyces appendiculatus) was 90 to 100% in each case. Further, the pest or weed control at 31 ppm in data set [6] is 70 to 79%.

The values are drawn from patent US12492196B2, “Thienyloxazolones and analogues” (Bayer Aktiengesellschaft, priority 2019, dated 2025).
